Test results reported in patent US9073864B2, “Aromatic ring compound” (TAKEDA PHARMACEUTICAL COMPANY LIMITED, priority 2012, dated 2015).

Key:
[1] = system: streptozotocin (STZ)-induced type 1 diabetes model rat; test: Suppressive action on hyperglycemia after eating in STZ-induced type 1 diabetes model rat bred with time-limited feeding; type: in vivo; conditions: 10 mg/kg p.o. q.d., detemir 10 U/kg s.c., n=8; for average plasma glucose concentration, 1 hr: 1 hr after administration and start of feeding; for average plasma glucose concentration, 2 hr: 2 hr after administration (immediately before end of feeding); for average plasma glucose concentration, value before administration: next day of 3 days repeated compound administration, immediately before feeding and dosing
Protocol: Suppressive Action on Hyperglycemia after Eating in Streptozotocin (STZ)-Induced Type 1 Diabetes Model Rat Bred with Time-Limited Feeding
Type 1 diabetes model STZ rat was generated by intravenously administering streptozotocin (STZ: Wako Pure Chemical Industries, Ltd., 65 mg/kg) after overnight fasting. From 1 week after the STZ treatment, time-limited feeding (feeding twice per day for 2 hours each time at 9:00-11:00 am and 16:00-18:00 pm) was started. On day 6 of breeding with time-limited feeding, blood samples were collected immediately before feeding in the morning and after 2 hours of feeding (immediately before end of feeding), and the rats were divided into two groups of detemir (long-acting insulin preparation) treatment group and detemir non-treatment group, with an increase in the plasma glucose concentration associated with the feed intake as an index. In the detemir treatment group, repeated subcutaneous administration of detemir (10 U/kg body weight, Novo Nordisk Pharma Ltd., once per day) was started after the end of feeding in the afternoon, and continued for 7 days until one day before evaluation of the influence of compound administration. Similarly, the detemir non-treatment group was subcutaneously administered repeatedly with saline for 7 days.
The day after repeated administration of detemir for 3 days, blood samples were collected in the same manner as above, and the animals in the detemir treatment group were divided into 3 groups based on an increase in the plasma glucose concentration associated with the feed intake. Each group was orally administered repeatedly with a 0.5% methylcellulose (MC) suspension containing the compound of Example 3 or 21 (10 mg/kg, q.d.) (8 per each group), or 0.5% methylcellulose solution (compound non-administration group, 8) for 4 days before feeding in the morning, starting from the next day of repeated administration of detemir for 4 days.
The next day of repeated administration of detemir for 7 days (the next day of repeated administration of compound for 3 days), blood samples were collected immediately before the start of feeding (and each compound administration) in the morning to obtain values before administration. Also, blood samples were collected after 1 and 2 hours of the administration (immediately before end of feeding), and an influence of compound administration on the profile of plasma glucose concentration after feed intake was evaluated.
Throughout the test, blood samples were collected from the tail vein, and the plasma glucose concentration was measured using Model 7180 HITACHI automatic analyzer.

[2] = target: T1, human type glucagon receptor (Homo sapiens, UniProt P47871); test: Measurement of glucagon binding inhibitory activity ([125I]-glucagon, receptor membrane protein); conditions: test compound 10 μM; 0.4% DMSO alone = 0%, unlabeled glucagon 1 μM = 100%; read-out: inhibitory rate (%) at 10 μM
T1 construct: an about 1.4 kb DNA fragment containing glucagon receptor gene was recovered from the gel; expressed in transfected cells; host or cells: FreeStyle CHO cells (transient expression); membrane fraction prepared by homogenisation and ultracentrifugation
T1 sequence (P47871 26-477): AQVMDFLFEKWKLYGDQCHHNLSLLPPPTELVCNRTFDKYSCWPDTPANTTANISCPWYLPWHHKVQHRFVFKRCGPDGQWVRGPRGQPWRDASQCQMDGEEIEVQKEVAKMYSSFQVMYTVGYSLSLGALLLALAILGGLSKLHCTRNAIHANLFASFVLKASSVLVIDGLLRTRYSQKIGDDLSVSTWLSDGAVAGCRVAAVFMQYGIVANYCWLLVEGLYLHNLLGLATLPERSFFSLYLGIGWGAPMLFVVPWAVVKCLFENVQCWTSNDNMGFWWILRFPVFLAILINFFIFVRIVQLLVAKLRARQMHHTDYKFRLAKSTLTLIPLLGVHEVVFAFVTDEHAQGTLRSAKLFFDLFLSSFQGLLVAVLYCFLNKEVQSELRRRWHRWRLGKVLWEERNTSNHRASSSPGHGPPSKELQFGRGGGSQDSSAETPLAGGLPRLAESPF
Protocol: The glucagon binding inhibitory action of the compound of the present invention was evaluated by the following method.
(1) Cloning of Human Glucagon Receptor Gene
Human glucagon receptor gene was cloned by PCR reaction using human pancreas Marathon-ready cDNA (Clontech Laboratories, Inc.) as a template and the following primer set.
The PCR reaction was performed using Advantage 2 polymerase (Clontech Laboratories, Inc.) and according to the attached protocol. The obtained PCR product was subjected to agarose gel (1%) electrophoresis, an about 1.4 kb DNA fragment containing glucagon receptor gene was recovered from the gel, and digested with restriction enzymes EcoRI and NotI. The restriction enzyme-treated DNA was subjected to agarose gel (1%) electrophoresis, an about 1.4 kb DNA fragment was recovered and ligated with plasmid pMSRaneo digested with restriction enzymes EcoRI and NotI to give human type glucagon receptor expression plasmid DNA “pMSRaneo/hGCGR”. The base sequence of the inserted fragment was confirmed to be identical with the object sequence.
(2) Preparation of Glucagon Receptor Membrane Protein
Human type glucagon receptor was expressed using FreeStyle CHO Expression System (Invitrogen™). According to the manual attached to the FreeStyle CHO Expression System, and using the human type glucagon receptor expression plasmid DNA “pMSRaneo/hGCGR” produced in the above-mentioned (1), transient expression was performed by FreeStyle CHO cells. The above-mentioned DNA was transfected, and shaking culture was performed at 37° C., 8% CO2, 125 rpm for 2 days. The culture medium was centrifuged at 2,000 rpm for 10 min and the cells were recovered. The recovered cells were washed with PBS, suspended in homogenate buffer [10 mM NaHCO3 (pH 7.4), 1 mM EDTA, complete EDTA-free (Roche, Ltd., 1 tablet/50 ml)], and the cells were disrupted by a Polytron cell disruption apparatus (Kinematica AG). The disruption solution was centrifuged at 2,000 rpm for 10 min, and the supernatant was recovered. The supernatant was centrifuged at 35,000 rpm for 60 min, and the precipitate was suspended in a buffer [20 mM Tris-HCl (pH 7.4), 5 mM EDTA, complete EDTA-free (Roche, Ltd., 1 tablet/50 ml)] to give a glucagon receptor membrane protein.
(3) Measurement of Glucagon Binding Inhibitory Activity
The reaction was started by adding 50 μl of a glucagon receptor membrane protein solution diluted with a reaction buffer [50 mM HEPES (pH 7.4), 5 mM EGTA, 5 mM magnesium chloride, 0.1% BSA, 0.005% Tween20] to 100 μg/ml, 25 μl of a test compound solution containing 0.4% DMSO, which solution was prepared with the reaction buffer to a compound concentration of 40 μM, and 25 μl of radiolabeled glucagon ([^125I]-Receptor Grade Glucagon; Perkin Elmer Inc.) diluted with the reaction buffer to 200 pM to each well of a 96 well plate (Corning Incorporated). The plate was stood at room temperature for 90 min, then the reaction solution was transferred from the reaction plate onto a 96 well unifilter GF/C plate (Perkin Elmer Inc.) by a cell harvester (Perkin Elmer Inc.), and suctioned to collect a membrane fraction on the filter. The filter was immersed in a 0.3% polyethyleneimine solution in advance to prevent non-specific adsorption of the labeled ligand. The filter was washed 4 times with the reaction buffer, and dried at 42° C. for 2 hr. To each well was added 25 μl of scintillator (MicroScint0; Perkin Elmer Inc.), and the amount of fluorescence was measured by a microplate scintillation counter (TopCount NXT™; Perkin Elmer Inc.).
The inhibitory rate (%) of the well added with the test compound (10 μM; containing 0.4% DMSO solution) was calculated wherein the reaction rate of the well added with 0.4% DMSO alone was 0% inhibitory rate and that of the well added with unlabeled glucagon (final concentration 1 μM) was 100% inhibitory rate.

[3] = system: Wistar fatty rat; test: Hypoglycemic action in Wistar fatty rat (single administration); type: in vivo; conditions: 10 mg/kg oral, 4 hr after administration, male Wistar fatty rats, change relative to non-administration group
Protocol: Hypoglycemic Action in Wistar Fatty Rat (Single Administration)
Wistar fatty rats (male, 25- to 26-week-old) were orally administered with a 0.5% methylcellulose suspension containing a test compound (10 mg/kg body weight) (test compound administration group, 4-6 per group) or 0.5% methylcellulose solution (test compound non-administration group, 4-6 per group), blood samples were collected from the rat tail vein 4 hr after the administration, and the hypoglycemic action was evaluated using the blood. The blood glucose was measured using Model 7180 HITACHI automatic analyzer (Hitachi, Ltd.).
In each animal of the test compound administration group and the test compound non-administration group, changes in the blood glucose level from that before administration was calculated, the difference between the “average change of test compound non-administration group” and the “change in each animal of test compound administration group” was calculated as the “change in blood glucose due to test compound”, and the average of each group was taken as the “blood glucose change value (mg/dL)”.

Row | SMILES | average plasma glucose concentration, 1 hr [1] | average plasma glucose concentration, 2 hr [1] | average plasma glucose concentration, value before administration [1] | inhibition at 10 µM [2] | blood glucose change value [3]
1 | Cc1cc(-n2cc3c(n2)CCCC3)ccc1C(CCC(F)(F)F)Nc1ccc(C(=O)N2CCC[C@@H](C(=O)O)C2)cc1 (stereo partly drawn) [Example 21, (3R)-1-(4-((4,4,4-trifluoro-1-(2-methyl-4-(4,5,6,7-tetrahydro-2H-indazol-2-yl)phenyl)butyl)amino)benzoyl)piperidine-3-carboxylic acid] | 471.1 mg/dL | 552.0 mg/dL | 435.6 mg/dL | 90% | -136.0 mg/dL
2 | Cc1cc(-c2ncc(Cl)cn2)ccc1C(CCC(F)(F)F)Nc1ccc(C(=O)N2CCC[C@@H](C(=O)O)C2)cc1 (stereo partly drawn) [Example 2, (3R)-1-(4-((1-(4-(5-chloropyrimidin-2-yl)-2-methylphenyl)-4,4,4-trifluorobutyl)amino)benzoyl)piperidine-3-carboxylic acid] |  |  |  | 92% | -149.8 mg/dL
3 | Cc1cc(-c2ccc(C(F)(F)F)cn2)ccc1C(CCC(F)(F)F)Nc1ccc(C(=O)N2CCC[C@@H](C(=O)O)C2)cc1 (stereo partly drawn) [Example 1, (3R)-1-(4-((4,4,4-trifluoro-1-(2-methyl-4-(5-(trifluoromethyl)pyridin-2-yl)phenyl)butyl)amino)benzoyl)piperidine-3-carboxylic acid] |  |  |  | 84% | -162.9 mg/dL
4 | Cc1cc(-c2ncc(C(F)(F)F)cn2)ccc1C(CCC(F)(F)F)Nc1ccc(C(=O)N2CCC[C@@H](C(=O)O)C2)cc1 (stereo partly drawn) [Example 3, (3R)-1-(4-((4,4,4-trifluoro-1-(2-methyl-4-(5-(trifluoromethyl)pyrimidin-2-yl)phenyl)butyl)amino)benzoyl)piperidine-3-carboxylic acid] | 463.6 mg/dL | 555.2 mg/dL | 397.0 mg/dL | 91% | -142.5 mg/dL
5 | Cc1cc(-n2cc3c(n2)CCCC3)ccc1C(CCC(F)(F)F)Nc1ccc(C(=O)N2CCC[C@@H](C(=O)O)C2)cc1 (mixture of isomers) [Example 20, (3R)-1-(4-((4,4,4-trifluoro-1-(2-methyl-4-(4,5,6,7-tetrahydro-2H-indazol-2-yl)phenyl)butyl)amino)benzoyl)piperidine-3-carboxylic acid] |  |  |  | 93% | 
6 | Cc1cc(-c2ccc(C(F)(F)F)nc2)ccc1C(CCC(F)(F)F)Nc1ccc(C(=O)N2CCC[C@@H](C(=O)O)C2)cc1 (stereo partly drawn) [Example 14, (3R)-1-(4-((4,4,4-trifluoro-1-(2-methyl-4-(6-(trifluoromethyl)pyridin-3-yl)phenyl)butyl)amino)benzoyl)piperidine-3-carboxylic acid] |  |  |  | 88% | 
7 | Cc1cc(-c2ccc(F)cc2)ccc1C(CCC(F)(F)F)Nc1ccc(C(=O)N2CCC[C@@H](C(=O)O)C2)cc1 (stereo partly drawn) [Example 5, (3R)-1-(4-((4,4,4-trifluoro-1-(4′-fluoro-3-methylbiphenyl-4-yl)butyl)amino)benzoyl)piperidine-3-carboxylic acid] |  |  |  | 86% | 
8 | CCc1cnc(-c2ccc(C(CCC(F)(F)F)Nc3ccc(C(=O)N4CCC[C@@H](C(=O)O)C4)cc3)c(C)c2)nc1 (stereo partly drawn) [Example 4, (3R)-1-(4-((1-(4-(5-ethylpyrimidin-2-yl)-2-methylphenyl)-4,4,4-trifluorobutyl)amino)benzoyl)piperidine-3-carboxylic acid] |  |  |  | 95% | -130.4 mg/dL
9 | Cc1cc(-n2cc3c(n2)CCCC3)ccc1C(Nc1ccc(C(=O)N2CCC[C@@H](C(=O)O)C2)cc1)C(C)C (stereo partly drawn) [Example 117, (3R)-1-(4-((2-methyl-1-(2-methyl-4-(4,5,6,7-tetrahydro-2H-indazol-2-yl)phenyl)propyl)amino)benzoyl)piperidine-3-carboxylic acid] |  |  |  | 90% | 
10 | Cc1cc(-c2ccc(C#N)cc2)ccc1C(CCC(F)(F)F)Nc1ccc(C(=O)N2CCC[C@@H](C(=O)O)C2)cc1 (stereo partly drawn) [Example 8, (3R)-1-(4-((1-(4′-cyano-3-methylbiphenyl-4-yl)-4,4,4-trifluorobutyl)amino)benzoyl)piperidine-3-carboxylic acid] |  |  |  | 91% | 
